Experimental findings from PubChem BioAssay AID1259411 (Chemical Carcinogenesis Research Information System (CCRIS), 2018) are described below.

Active and inactive are the calls of the source. How the calls were made is not given here.

This data set relates to rodent carcinogenicity bioassays, tumor incidence. Kind of data set: CCRIS carcinogenicity studies. Summed up:
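Archive of carcinogenicity, mutagenicity, tumor promotion and tumor inhibition results drawn from journals, NCI reports and other sources, expert-reviewed; covers 1985-2011 and is no longer updated.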

For the compound `O=c1ccc(=O)[nH][nH]1`, the carcinogen call is “inactive; negative” (Species: MOUSE, Strain/Sex: ICR/HA SWISS/FEMALE, Route: SUBCUTANEOUS, Dose: 0, 0.5 MG IN 0.1 ML WATER ON D 1 AND 7 OF AGE THEN 0, 1 MG IN 0.2 ML ON D 14 AND 21 FOR A TOTAL DOSE OF 0, 3 MG (STUDY D, Dose: 0, 0.5 MG IN 0.1 ML WATER ON D 1 AND 7 OF AGE THEN 0, 1 MG IN 0.2 ML ON D 14 AND 21 FOR A TOTAL DOSE OF 0, 3 MG (STUDY D); “inactive; negative” (Species: MOUSE, Strain/Sex: ICR/HA SWISS/FEMALE, Route: SUBCUTANEOUS, Dose: 0, 5 MG IN 0.1 ML TRICAPRYLIN SUSPENSION ON D 1 OF AGE THEN 0, 10 MG IN 0.1 ML ON D 7, 0, 20 MG IN 0.2 ML ON D 14 AND 21, Dose: 0, 5 MG IN 0.1 ML TRICAPRYLIN SUSPENSION ON D 1 OF AGE THEN 0, 10 MG IN 0.1 ML ON D 7, 0, 20 MG IN 0.2 ML ON D 14 AND 21); “active; positive” (Species: MOUSE, Strain/Sex: ICR/HA SWISS/MALE, Route: SUBCUTANEOUS, Dose: 0, 5 MG IN 0.1 ML TRICAPRYLIN SUSPENSION ON D 1 OF AGE THEN 0, 10 MG IN 0.1 ML ON D 7, 0, 20 MG IN 0.2 ML ON D 14 AND 21, Dose: 0, 5 MG IN 0.1 ML TRICAPRYLIN SUSPENSION ON D 1 OF AGE THEN 0, 10 MG IN 0.1 ML ON D 7, 0, 20 MG IN 0.2 ML ON D 14 AND 21, Tumor Site: Type of Lesion: LIVER: HEPATOMA).
Take `Nc1ccc([N+](=O)[O-])cc1O`: the carcinogen call by setting is: (Species: MOUSE, Strain/Sex: B6C3F1/FEMALE, Route: GAVAGE, Dose: 0, 400, 800 MG/KG IN CORN OIL 5D/WK FOR 103 WK (STUDY DURATION: 105 WK), Dose: 0, 400, 800 MG/KG IN CORN OIL 5D/WK FOR 103 WK (STUDY DURATION: 105 WK)) “inactive; negative”; (Species: MOUSE, Strain/Sex: B6C3F1/MALE, Route: GAVAGE, Dose: 0, 400, 800 MG/KG IN CORN OIL 5D/WK FOR 103 WK (STUDY DURATION: 105 WK), Dose: 0, 400, 800 MG/KG IN CORN OIL 5D/WK FOR 103 WK (STUDY DURATION: 105 WK)) “inactive; negative”; (Species: RAT, Strain/Sex: F344/FEMALE, Route: GAVAGE, Dose: 0, 100, 200 MG/KG IN CORN OIL 5D/WK FOR 103 WK (STUDY DURATION: 105 WK), Dose: 0, 100, 200 MG/KG IN CORN OIL 5D/WK FOR 103 WK (STUDY DURATION: 105 WK)) “inactive; negative”; (Species: RAT, Strain/Sex: F344/MALE, Route: GAVAGE, Dose: 0, 100, 200 MG/KG IN CORN OIL 5D/WK FOR 103 WK (STUDY DURATION: 105 WK), Dose: 0, 100, 200 MG/KG IN CORN OIL 5D/WK FOR 103 WK (STUDY DURATION: 105 WK), Tumor Site: Type of Lesion: PANCREAS: ACINAR CELL ADENOMA, PANCREAS: ACINAR CELL ADENOMA OR CARCINOMA) “active; positive”.
As to `C#C[C@]1(O)CC[C@H]2[C@@H]3CCc4cc(O)ccc4[C@H]3CC[C@@]21C`, the carcinogen call is, setting by setting: (Species: MOUSE, Route: ORAL, Tumor Site: Type of Lesion: CERVIX, MAMMARY GLAND, PITUITARY GLAND, UTERUS, Tumor Site: Type of Lesion: CERVIX, MAMMARY GLAND, PITUITARY GLAND, UTERUS) “active; positive”; (Species: MOUSE, Strain/Sex: CD-1/FEMALE, Route: SUBCUTANEOUS, Dose: 0, 2 UG/D IN CORN OIL ON DAYS 1-5 OF LIFE (STUDY DURATION: 12-18 WK), Tumor Site: Type of Lesion: UTERUS: ADENOCARCINOMA) “active; positive”; (Species: RAT, Route: ORAL, SUBCUTANEOUS, Tumor Site: Type of Lesion: LIVER) “active; positive”; (Species: Rat, Strain/Sex: Sprague-Dawley/Female (50/Group), Route: Oral, Dose: 0, 2, 10, 50 ppb in diet, continuous exposure from conception through 2 yr, Dose: 0, 2, 10) “inactive; negative”; (Species: Rat, Strain/Sex: Sprague-Dawley/Female (50/Group), Route: Oral, Dose: 0, 2, 10, 50 ppb in diet, continuous exposure from conception through PND 140, followed by control diet to 2 yr, Dose: 0, 2, 10) “inactive; negative (authors describe as equivocal evidence based on stromal polyp (2/51, 5”; (Species: Rat, Strain/Sex: Sprague-Dawley/Male (50/Group), Route: Oral, Dose: 0, 2, 10, 50 ppb in diet, continuous exposure from conception through 2 yr, Dose: 0, 2, 10) “inactive; negative”. In addition, for the setting “Species: Rat, Strain/Sex: Sprague-Dawley/Male (50/Group), Route: Oral, Dose: 0, 2, 10, 50 ppb in diet, continuous exposure from conception through PND 140, followed by control diet to 2 yr, Dose: 0, 2, 10”, the carcinogen call is “inactive; negative”.
